In patent US11958821B2, “Phenethylamine compounds salts, polymorphic forms and methods of use thereof” (Terran Biosciences Inc., priority 2021, dated 2024):

Key:
[1] = Physical stability of MBDB salts at 40° C./75% RH; format: physicochemical; conditions: 40° C./75% RH overnight
Description: During the screen, a single crystal Maleate 1 of sufficient size and quality was obtained from a vapor diffusion experiment with ethanol and hexane. The crystal structure is reported elsewhere but the data confirmed the anhydrous/unsolved nature of the material. […] Two new crystalline forms of MBDB Maleate were observed during the screening designated as MBDB Maleate 2 and MBDB Maleate 3 (FIG. 96, 97). Additional characterization of these samples was conducted to better understand the nature of the materials produced, as shown below. MBDB Maleate 2 was generated once from a cooling crystallization from dioxane. The proton nuclear magnetic resonance (NMR) spectrum was consistent with a monomaleate salt of MBDB and contained residual dioxane. Only a limited amount of material was recovered so the only additional characterization that could be completed was differential scanning calorimetry (DSC). The DSC thermogram appears consistent with an anhydrous/unsolvated form with a likely melt at 96° C. (FIG. 100). […] An attempt was made to reproduce Maleate 2 using the same conditions and seeds of Maleate 2. PXRD analysis of the recovered solids however was consistent with Maleate 1. MBDB Maleate 3 was isolated from an evaporation experiment involving chloroform and ethyl acetate. NMR analysis of the material was consistent with a mono-maleate salt of MBDB. Thermal analysis was consistent with an anhydrous/unsolvated material with a likely melting point of 73° C. (FIG. 101). […] No additional characterization was completed on this sample due to the limited amount of material that was recovered.

Male Sprague-Dawley rats = assay: Rat elevated zero-maze study with racemic MBDB, R-MBDB, S-MBDB and chlordiazepoxide; conditions: for Dose showing a switch to an anxiolytic effect (magnitude of the reduction in SAPs): ip
Description: Two opposite quadrants are enclosed by Perspex walls on both the inner and the outer edges of the platform, while the remaining two opposite quadrants are open being enclosed only by a Perspex “lip”. Animals will show a preference for the closed areas, and avoidance of the open sections is assumed to stem from a rodent's natural aversion to open, exposed spaces. A reduction in the amount of activity on the open areas is considered to reflect an increase in anxiety. The ethologically-based behavior stretched attend postures (SAP) from closed to open quadrants is assessed as an index of anxiety. […] Animals
Male Sprague-Dawley 200-250 g (Envigo UK) rats were used. Animals were group-housed (5 per cage; cage size: 40×40×20 cm) in a temperature-controlled environment (22±2° C.), under a 12 h light-dark cycle (lights on: 08:00 hours) for one week prior to testing. Food and water were freely available. Number of animals per group=5.
The elevated 0-maze comprises a black Perspex annular platform (105 cm diameter, 10 cm width) elevated to 65 cm above ground level, divided equally into four quadrants. Two opposite quadrants are enclosed by clear red Perspex walls (27 cm high) on both the inner and outer edges of the platform, while the remaining two opposite quadrants are surrounded only by a Perspex “lip” (1 cm high) which serves as a tactile guide to animals on these open areas.
Subjects were weighed and tail marked before being injected. After a specified pretreatment time, subjects were placed in a closed quadrant and a 5-min test period were recorded on videotape for subsequent analysis. The maze was cleaned with 5% methanol/water solution and dried thoroughly between test sessions. Behavioural measures comprise percentage time spent on the open areas (% TO) and frequency of stretched attend postures (SAP) from closed to open quadrants. Since the control groups were all treated identically with the same vehicle these were combined to increase power. The Chlordiazepoxide groups were also treated identically with the same dose so these were also combined to increase power. Animals are scored as being in the open area when all four paws were in an open quadrant and in the closed area only when all four paws have passed over the open-closed divide.
Thirty min later at T=0, rats were individually placed in a closed arm of the zero-maze and behavior assessed by a “blind” observer using remote video monitoring over the subsequent 5 min. The animals were then removed and the maze carefully wiped with 5% methanol/water solution before the next test was begun.
Thirty min later at T=0, rats were individually placed in a closed arm of the zero-maze and behavior was assessed by a “blind” observer using remote video monitoring over the subsequent 5 min. The animal were then removed and the maze carefully wiped with 5% methanol/water solution before the next test was begun.
Thirty min later at T=0, rats were individually placed in a closed arm of the zero-maze and behavior was assessed by a “blind” observer using remote video monitoring over the subsequent 5 min.

[2] = system: participants diagnosed with at least moderate post-traumatic stress disorder (PTSD); assay: Double-blind, randomized, placebo-controlled clinical trial of MBDB-assisted psychotherapy in PTSD; format: in vivo, human; conditions: for Change in CAPS-5 assessment: Study Conclusion, hydrochloride salt with psychotherapy; for Change in CAPS-5 assessment / Clinician-rated functional impairment score (SDS) / Depression (HAM-D): vs placebo; for Daytime sleepiness (ESS): human, in vivo; for Total dosage of drug to achieve significant mean reduction in CAPS-5: vs racemic MBDB-treated subgroup
Description: A multicenter, randomized, double-blind, placebo-controlled trial is conducted to assess the efficacy and safety of MBDB-assisted psychotherapy versus psychotherapy with placebo control in participants diagnosed with at least moderate post-traumatic stress disorder (PTSD).
This multicenter, randomized, double-blind, placebo-controlled trial is conducted at various sites in the United States with IRB approval from each study site. A flexible dose of MBDB hydrochloride salt or placebo, followed by a supplemental half-dose unless contraindicated by patient's previous response or medical history, is also administered during the Treatment Period with psychotherapy in at least 3 blinded monthly Experimental Sessions. The Supplemental Dose extends the duration of drug effects on the participants during an Experimental Session. MBDB test groups are further subdivided into specific groups receiving only racemic MBDB hydrochloride salt, S-MBDB hydrochloride salt, or R-MBDB hydrochloride salt. An optional Risk Evaluation and Mitigation Strategy (REMS) Protocol may be implemented for the racemic MBDB, S-MBDB, R-MBDB, and placebo-groups. The Treatment Period lasts for approximately 12 weeks. During the Treatment Period, each Experimental Session is followed by three Intervening Sessions of non-drug psychotherapy. Each Experimental Session involves an overnight stay. The Primary Outcome measure, the change in Clinician Administered PTSD Scale for DSM-5 (CAPS-5), is determined by a blinded Independent Rater (IR) pool multiple times throughout the study. The study consists of separate periods for each participant. Initially, prospective participants undergo a Screening Period involving an initial eligibility assessment, a medical history intake, informed consent, and enrollment of eligible participants. Next, a Preparation Period is undertaken for enrolled participants involving medication tapering and clinical baseline assessments to confirm each participant meets enrollment criteria. As part of the Preparation Period, a detailed assessment of co-morbidities to PTSD is recorded. Participants may remain on prescribed courses of selective serotonin reuptake inhibitor (SSRI) or serotonin and norepinephrine reuptake inhibitor (SNRI) treatment. Dosages and/or frequency of administration of a prescribed SSRI or SNRI may be adjusted to fit within study parameters. Participants may be required to taper a prescribed course of medication in order to maintain eligibility within the study. The Treatment Period consists of three monthly Experimental Sessions and associated Intervening Sessions of integrative behavioral psychotherapy. The Treatment Period lasts approximately 12 weeks. Following the Treatment Period is a Follow-up Period and Study Conclusion. During the Follow-up Period and Study Conclusion, participants complete 4 weeks with no study visits, followed by a Study Conclusion visit.
This study compares the effects of three blinded Experimental Sessions of psychotherapy in combination with flexible doses of MBDB or placebo administered as described below. Non-drug preparatory and intervening psychotherapy sessions are also included. Patient's weight is determined for dosage calculation. Initial dose is 180 mg unless this will result in a dosage of less than 1.5 mg/kg of patient weight. Initial dose thereby adjusted upward in 50 mg increments to deliver the lowest dose possible of at least 1.5 mg/kg of patient weight. Initial dose for Experimental Session 2 and 3 is cumulative dose calculated by adding the initial dose plus REMS protocol dose used the previous Experimental Session for each patient.
Randomization occurs prior to the initiation of Experimental Session 1. Each participant is provided the next randomized number in a sequence by a blinded study monitor. Participants are then randomized, according to a computer-generated randomization schedule, 1:1:1:1 to racemic MBDB, S-MBDB, R-MBDB, or placebo. […]

[3] = 5 mg/kg ip, continued anxiogenic effect

## CCC(Cc1ccc2c(c1)OCO2)NC.O=S(=O)(O)O (centres unmarked) [Sulfate 1]
[1]
  Physical Stability: Deliquesced

## CCC(Cc1ccc2c(c1)OCO2)NC.Cc1ccc(S(=O)(=O)O)cc1 (centres unmarked) [Tosylate 1]
[1]
  Physical Stability: No change

## CC[C@H](Cc1ccc2c(c1)OCO2)NC [R-MBDB]
Male Sprague-Dawley rats; 10 mg/kg ip
  Frequency of stretched attend postures (SAP): consistent level of SAPs similar to the 5 mg/kg
Male Sprague-Dawley rats; 15 mg/kg ip
  Frequency of stretched attend postures (SAP): reduction in the number of SAPs compared to lower doses
Male Sprague-Dawley rats; 30 mg/kg ip
  Frequency of stretched attend postures (SAP): decreased the frequency of SAPs as effectively as the benzodiazepine chlordiazepoxide
Male Sprague-Dawley rats; 30 mg/kg ip, listed as R MBDB
  Frequency of stretched attend postures (SAP): significantly reduced the number of SAPs
Male Sprague-Dawley rats
  Dose showing a switch to an anxiolytic effect (magnitude of the reduction in SAPs): 15 mg/kg
[2]
  Change in CAPS-5 assessment: significant mean reduction in CAPS-5 assessment compared to the placebo group
  Daytime sleepiness (ESS): significant improvement in lessening daytime sleepiness
  Clinician-rated functional impairment score (SDS): significant improvement in clinician-rated functional impairment score
  Depression (HAM-D): significant improvement depression
  Total dosage of drug to achieve significant mean reduction in CAPS-5: lower total dosage of drug compared to the racemic MBDB-treated subgroup

## CCC(Cc1ccc2c(c1)OCO2)NC.O=C(O)[C@@H](O)[C@H](O)[C@H](O)[C@@H](O)C(=O)O (centres unmarked) [Galactarate 1]
[1]
  Physical Stability: No change

## CCC(Cc1ccc2c(c1)OCO2)NC.O=C(O)CC(=O)O (centres unmarked) [Malonate 1]
[1]
  Physical Stability: No change

## CCC(Cc1ccc2c(c1)OCO2)NC.O=C(O)/C=C/C(=O)O (centres unmarked) [Fumarate 1]
[1]
  Physical Stability: No change

## CC[C@@H](Cc1ccc2c(c1)OCO2)NC [S-MBDB]
Male Sprague-Dawley rats; [3]
  Frequency of stretched attend postures (SAP): reached significance
Male Sprague-Dawley rats; 10 mg/kg ip
  Frequency of stretched attend postures (SAP): rapid reduction in total SAPs
Male Sprague-Dawley rats; 15 mg/kg ip
  Frequency of stretched attend postures (SAP): reduction in the number of SAPs compared to lower doses
Male Sprague-Dawley rats; 30 mg/kg ip
  Frequency of stretched attend postures (SAP): decreased the frequency of SAPs as effectively as the benzodiazepine chlordiazepoxide
  Magnitude of the reduction in SAPs among MBDB forms: greatest
Male Sprague-Dawley rats; 30 mg/kg ip, listed as S MBDB
  Frequency of stretched attend postures (SAP): significantly reduced the number of SAPs
Male Sprague-Dawley rats
  Dose showing a switch to an anxiolytic effect (magnitude of the reduction in SAPs): 10 mg/kg
[2]
  Change in CAPS-5 assessment: significant mean reduction in CAPS-5 assessment compared to the placebo group
  Daytime sleepiness (ESS): significant improvement in lessening daytime sleepiness
  Clinician-rated functional impairment score (SDS): significant improvement in clinician-rated functional impairment score
  Depression (HAM-D): significant improvement depression
  Total dosage of drug to achieve significant mean reduction in CAPS-5: lower total dosage of drug compared to the racemic MBDB-treated subgroup
[2]; vs placebo-treated controls
  Adverse anxiogenic incidents: without a significant increase in adverse anxiogenic incidents

## CCC(Cc1ccc2c(c1)OCO2)NC (racemic) [racemic MBDB]
Male Sprague-Dawley rats; [3]
  Frequency of stretched attend postures (SAP): reached significance
Male Sprague-Dawley rats; 10 mg/kg ip
  Frequency of stretched attend postures (SAP): consistent level of SAPs similar to the 5 mg/kg
Male Sprague-Dawley rats; 30 mg/kg ip
  Frequency of stretched attend postures (SAP): showed a trend toward significance
Male Sprague-Dawley rats
  Dose showing a switch to an anxiolytic effect (magnitude of the reduction in SAPs): 30 mg/kg
[2]
  Change in CAPS-5 assessment: significant mean reduction in CAPS-5 assessment compared to the placebo group
  Daytime sleepiness (ESS): significant improvement in lessening daytime sleepiness
  Clinician-rated functional impairment score (SDS): significant improvement in clinician-rated functional impairment score
  Depression (HAM-D): significant improvement depression

## CCC(Cc1ccc2c(c1)OCO2)NC.O=C(O)CC(O)(CC(=O)O)C(=O)O (centres unmarked) [Citrate 1]
[1]
  Physical Stability: Tacky solids

## CCC(Cc1ccc2c(c1)OCO2)NC.O=C(O)CCC(=O)O (single isomer, unassigned) [Succinate 1]
[1]
  Physical Stability: Tacky solids
